Experimental data as given in patent publication US11059846B2, “Immune stimulating compound” (ISR IMMUNE SYSTEM REGULATION HOLDING AB (PUBL), priority 2017, dated 2021).

Columns and labels:
human TLR2 = molecular target: T1, human TLR2 (Homo sapiens, UniProt O60603); assay: TLR2 reporter assay (HEK-293-TLR cells, SEAP reporter); format: cell-based; settings: compound 1 down to 5 μM; others up to 20 μM
T1 construct: host or cells: recombinant HEK-293-TLR cell lines
Protocol: These cell lines functionally over-express human TLR2 protein as well as a reporter gene which is a secreted alkaline phosphatase (SEAP). The production of this reporter gene is driven by an NFkB inducible promoter. […] 20 μl of each test article were used to stimulate the hTLR2 reporter cell lines in a 200 μl of final reaction volume. Samples were tested in duplicate, with at least two concentrations tested −20 μM and 10 μM.
Compounds were tested using a TLR2 reporter assay (see general methods) that measured for stimulation of the TLR2 receptor.

[1] = tested on: Macrophages from healthy donors; assay: Cytokine/chemokine secretion from macrophages, cytometric bead assay; format: cell-based; settings: 2 days
Protocol: FIG. 10: Interferon-gamma secretion (as measured by cytometric bead assay) from macrophages stimulated with indicated compound for 48 h.
(§1) FIG. 11: Chemokine RANTES secretion (as measured by cytometric bead assay) from PBMC or macrophages stimulated with indicated compound for 48 h.
(§2) FIG. 12: IL12p70 secretion (as measured by cytometric bead assay) from PBMC or macrophages stimulated with indicated compound for 48 h.
(§3) FIG. 13: IL1b secretion (as measured by cytometric bead assay) from PBMC, macro-phages or CD4 T cells stimulated with indicated compound for 48 h.
Study 9: Macrophages from healthy donors where exposed to compounds 1 or 2 for 48 hours. […] Compound 1 is therefore able to induce IFN-gamma secretion in macrophages from healthy donors.
(§4) Study 10: PBMCs and macrophages where exposed to compounds 1 or 2 for 2 days (FIG. 11).
(§5) Study 11: PBMCs and macrophages where exposed to compounds 1 and 2 for 2 days.
(§6) Study 12: PBMCs, macrophages and CD4+ T cells where exposed to compounds 1 and 2 for 2 days.

C57bl/6 mice [2] = assay: MHC class I expression on CD11b+ splenocytes of mice after i.v. injection, flow cytometry; format: in vivo; settings: spleen removed 24 h later
Protocol: FIG. 15: % MHC class I high CD11b+ cells in spleen of 3 individual C57bl/6 mice injected 24 h previously with indicated compound. MHC class I and CD11b expression was measured by flow cytometry.
Study 14: Compound 1 or 2 was administered i.v. to C57bl/6 mice.

[3] = tested on: PBMCs from CMV infected donors; assay: IFN-gamma secretion from PBMCs of CMV infected donors with CMV antigen, cytometric bead assay; format: cell-based, Human; settings: 3 days
From the text: FIG. 9: Interferon-gamma secretion (as measured by cytometric bead assay) from PBMCs (from a CMV+ donor) grown with CMV peptides in the presence or absence of compound 1 or 2 for 5 days.
Study 8: PBMCs from CMV infected donors cultured in the presence of CMV antigen where either untreated or exposed to compound 1 or compound 2 for 3 days.

PBMCs = assay: Cytokine/chemokine secretion from PBMC, cytometric bead assay; format: cell-based; settings: 2 days
Protocol: as §1, §2, §3, §4, §5, §6

[4] = tested on: CMV specific CD8+ T cells; assay: CMV cultures: phenotype of CMV specific CD8+ T cells; format: cell-based, Human; settings: CMV antigen, 6 days
Protocol: FIG. 8. Upregulation of IL-7 receptor a (CD127) on CMV specific CD8 T cells after incubation with compound 1, measured with flow cytometry.
Human peripheral blood mononuclear cells (PBMCs) were purified from healthy CMV positive donors with Ficoll-Paque density centrifugation. The PBMC were labeled with 5 μM celltrace violet (Invitrogen) in PBS for 15 minutes and then washed with complete cell culture medium. The labeled PBMC was cultured in the presence of a peptide library spanning the CMV pp65 protein (1 μg peptide/ml, JPT) in AIM-V media (Invitrogen) supplemented with L-glutamine, Sodium pyruvate (Sigma), 10% fetal bovine serum, 100 μg/mL penicillin and 100 μg/mL streptomycin (Hyclone) for 6-8 days in 37° C., 5% CO2. Cell proliferation was assessed with flow cytomtery using a BD FACS Canto II flow cytometer.
Study 7: CMV virus specific T cell proliferation was also affected by compound 1. […] CD127 is crucial for T cell homeostasis, differentiation and function, and reduced expression correlates with disease severity in HIV and other chronic viral diseases (Crawley et al Sem Imm 2012).

[5] = tested on: Human peripheral blood mononuclear cells (PBMCs); assay: Marker expression on PBMC by flow cytometry; format: cell-based; settings: 24 h
Protocol: Human peripheral blood mononuclear cells (PBMCs) were purified from healthy donors with Ficoll-Paque density centrifugation. Cells were cultured in complete RPMI-1640 media (Invitrogen) supplemented with 25 mM HEPES, L-glutamine, Sodium pyruvate (Sigma), 10% fetal bovine serum, 100 μg/mL penicillin and 100 μg/mL streptomycin (Hyclone) for 24-72 hours in 37° C., 5% CO2 and stimulated with and increasing concentrations of compound 1 and 2. Cells were then washed in PBS and stained with monoclonal antibodies specific for cell surface markers (BD Pharmingen) and analysed with flow cytomtery using a BD FACS Canto II flow cytometer. All samples were tested in duplicates.
Human peripheral blood mononuclear cells (PBMCs) were purified from healthy donors with Ficoll-Paque density centrifugation. Cells were cultured in complete RPMI-1640 medium (Invitrogen) supplemented with 25 mM HEPES, L-glutamine, Sodium pyruvate (Sigma), 10% fetal bovine serum, 100 μg/mL penicillin and 100 μg/mL streptomycin (Hyclone). Cells were stimulated for 24 h (study 1-4) or 48 h to 1 week (study 5) in 37° C., 5% CO2 with increasing concentrations of compound 1 and 2 in tissue culture plates. The cells were removed from the plate, washed in PBS and analysed for expression of cell specific surface markers and MHC class I with flow cytometry using monoclonal antibodies from BD Pharmingen and a FACS Canto II flow cytometer.

CD4+ T cells = assay: IL-1beta secretion from CD4+ T cells, cytometric bead assay; format: cell-based; settings: 2 days
Protocol: as §3, §6

C57bl/6 mice [6] = assay: CD25 high cells in blood of mice after i.v. injection, flow cytometry; format: in vivo
Protocol: FIG. 14: % CD25 high cells in blood of C57bl/6 mice injected 24 h previously with indicated dose of compound 1. CD25 expression was measured by flow cytometry.
Study 13: Compound 1 was administered i.v. to C57bl/6 mice at 0.165 mg/kg to 5 mg/kg. CD25+ cell abundance was increased in animals receiving the highest dose of 5 mg/kg (FIG. 14), as was body weight in the same group (not shown).

[7] = tested on: Monocytes differentiated into macrophages; assay: CD80 expression on monocytes differentiated into macrophages, flow cytometry; format: cell-based, Human; settings: 24 h

T1 sequence (O60603 21-784): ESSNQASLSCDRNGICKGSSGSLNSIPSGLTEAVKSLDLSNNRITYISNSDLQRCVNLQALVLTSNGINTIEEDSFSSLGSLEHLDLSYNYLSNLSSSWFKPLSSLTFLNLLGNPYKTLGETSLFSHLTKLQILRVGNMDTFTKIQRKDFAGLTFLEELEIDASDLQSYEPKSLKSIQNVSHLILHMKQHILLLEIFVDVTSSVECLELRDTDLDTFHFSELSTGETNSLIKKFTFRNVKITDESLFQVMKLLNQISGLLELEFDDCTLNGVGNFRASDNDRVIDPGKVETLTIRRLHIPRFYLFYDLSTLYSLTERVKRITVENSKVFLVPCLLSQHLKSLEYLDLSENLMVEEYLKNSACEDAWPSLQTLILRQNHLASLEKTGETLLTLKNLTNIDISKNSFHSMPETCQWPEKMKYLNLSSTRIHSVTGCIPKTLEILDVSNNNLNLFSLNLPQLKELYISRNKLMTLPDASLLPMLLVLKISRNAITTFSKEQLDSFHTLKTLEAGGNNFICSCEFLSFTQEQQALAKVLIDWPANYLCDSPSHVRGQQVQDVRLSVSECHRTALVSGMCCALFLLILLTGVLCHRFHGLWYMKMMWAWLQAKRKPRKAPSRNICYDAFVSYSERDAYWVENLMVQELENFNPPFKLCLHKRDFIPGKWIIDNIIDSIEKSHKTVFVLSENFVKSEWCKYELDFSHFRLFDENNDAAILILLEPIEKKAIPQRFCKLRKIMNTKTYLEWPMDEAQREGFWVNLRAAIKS

stimulation of TLR2 (in words) (human TLR2)	Compound	IL-1beta secretion in macrophages [1]	RANTES expression in macrophages [1]	splenocyte cells (CD11b+) with high MHC I expression (C57bl/6 mice [2])	IFN-gamma secretion [3]	IL-1beta secretion in PBMCs (PBMCs)	RANTES expression in PBMCs (PBMCs)	expression of IL-7 receptor a (CD127) on activated CMV specific CD8+ T cells [4]	CD69 expression on B cells ([5]; 1 μM)	CD69 expression on CD4+ T cells ([5]; 1 μM)	CD80 expression on monocytes [5]	MHC class I (HLA-ABC) expression on B-cells [5]	MHC class I (HLA-ABC) expression on T-cells [5]	MHC class II (HLA-DR) expression on monocytes [5]	IL-1beta secretion in CD4+ T cells (CD4+ T cells)	body weight (C57bl/6 mice [6]; 5 mg/kg group (not shown))	CD25+ cell abundance in blood (C57bl/6 mice [6]; highest dose of 5 mg/kg, 24 h)	CD80 expression on macrophages [7]
little or no stimulation	CC[C@H]1OC(=O)[C@H](C)[C@@H](O[C@H]2C[C@@](C)(OC)[C@@H](O)[C@H](C)O2)[C@H](C)[C@@H](O[C@@H]2O[C@H](C)C[C@H](N(C)C)[C@H]2O)[C@](C)(O)C[C@@H](C)C(=O)[C@H](C)[C@@H](O)[C@]1(C)O [Erythromycin]																	
little or no stimulation	CC[C@H]1OC(=O)[C@H](C)[C@@H](O[C@H]2C[C@@](C)(OC)[C@@H](O)[C@H](C)O2)[C@H](C)[C@@H](O[C@@H]2O[C@H](C)C[C@H](N(C)C)[C@H]2O)[C@](C)(O)C[C@@H](C)CN(C)[C@H](C)[C@@H](O)[C@]1(C)O [Azithromycin]																	

Compound	stimulation of TLR2 (in words) (human TLR2)	IL-1beta secretion in macrophages [1]	RANTES expression in macrophages [1]	splenocyte cells (CD11b+) with high MHC I expression (C57bl/6 mice [2])	IFN-gamma secretion [3]	IL-1beta secretion in PBMCs (PBMCs)	RANTES expression in PBMCs (PBMCs)	expression of IL-7 receptor a (CD127) on activated CMV specific CD8+ T cells [4]	CD69 expression on B cells ([5]; 1 μM)	CD69 expression on CD4+ T cells ([5]; 1 μM)	CD80 expression on monocytes [5]	MHC class I (HLA-ABC) expression on B-cells [5]	MHC class I (HLA-ABC) expression on T-cells [5]	MHC class II (HLA-DR) expression on monocytes [5]	IL-1beta secretion in CD4+ T cells (CD4+ T cells)	body weight (C57bl/6 mice [6]; 5 mg/kg group (not shown))	CD25+ cell abundance in blood (C57bl/6 mice [6]; highest dose of 5 mg/kg, 24 h)	CD80 expression on macrophages [7]
CC[C@H]1OC(=O)[C@H](C)[C@@H](O[C@H]2C[C@@H](N(C)C)[C@H](O)[C@@H](C)O2)[C@H](C)[C@@H](O)[C@](C)(O)C[C@@H](C)CN(C)[C@H](C)[C@@H](O)[C@]1(C)O [Compound 1]	stimulated TLR2	increased	high expression	increase	induced secretion of high levels	slightly	twofold upregulation	increased expression	upregulated	upregulated	upregulation	upregulation	upregulation	upregulation	no IL-1beta was induced	increased	increased	upregulated
